IC50 data for 19 molecules are collected here from patent publication US8067582B2 (Bristol-Myers Squibb Company, priority 2007, dated 2011).

Some results are limits rather than exact numbers.

In one test the target is T1, androgen receptor (AR) (Homo sapiens, UniProt P10275).
T1 sequence (P10275 1-920): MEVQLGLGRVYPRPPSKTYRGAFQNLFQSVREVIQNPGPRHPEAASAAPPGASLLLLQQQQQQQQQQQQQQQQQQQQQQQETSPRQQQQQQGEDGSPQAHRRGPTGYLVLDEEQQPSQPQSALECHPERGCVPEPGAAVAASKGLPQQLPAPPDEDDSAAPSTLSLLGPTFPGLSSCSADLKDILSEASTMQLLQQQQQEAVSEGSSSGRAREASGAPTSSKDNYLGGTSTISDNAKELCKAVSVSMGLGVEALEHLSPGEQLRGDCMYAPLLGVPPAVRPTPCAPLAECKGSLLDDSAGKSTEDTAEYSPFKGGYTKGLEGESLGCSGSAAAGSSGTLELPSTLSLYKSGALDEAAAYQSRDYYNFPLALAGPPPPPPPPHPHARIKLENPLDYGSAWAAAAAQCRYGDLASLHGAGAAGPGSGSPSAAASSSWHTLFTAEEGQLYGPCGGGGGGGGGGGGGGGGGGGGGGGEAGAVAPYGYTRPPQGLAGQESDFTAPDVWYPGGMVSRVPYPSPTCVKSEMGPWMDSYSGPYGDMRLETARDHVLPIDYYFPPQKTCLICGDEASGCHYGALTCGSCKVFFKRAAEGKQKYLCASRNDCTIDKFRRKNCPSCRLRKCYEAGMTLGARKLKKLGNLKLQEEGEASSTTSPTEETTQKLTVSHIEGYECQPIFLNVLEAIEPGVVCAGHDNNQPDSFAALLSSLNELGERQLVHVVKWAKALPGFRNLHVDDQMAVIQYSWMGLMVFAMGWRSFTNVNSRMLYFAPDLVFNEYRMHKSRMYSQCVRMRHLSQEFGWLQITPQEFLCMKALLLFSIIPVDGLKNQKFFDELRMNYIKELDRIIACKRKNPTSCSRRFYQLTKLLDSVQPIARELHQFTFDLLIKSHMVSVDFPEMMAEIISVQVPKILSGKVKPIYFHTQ
The experiment in a line: MDA-MB-453 Androgen Receptor Transactivation Assay (PSA-Luc reporter, 3 nM DHT). Format: cell-based. The note with it: MDA-MB-453 cells, antagonism in presence of 3 nM DHT, 48 hour incubation. The text has this:
Compounds can be tested in a cell based transactivation assay used to measure the antagonism of androgen receptor (AR) transcriptional activity. The transactivation assay provides a means of identifying antagonists that inhibit the effects of the native hormone dihydrotestosterone (DHT). […] The pGL3 PSA-Luc reporter plasmid is comprised of the cDNA for the firefly luciferase gene and the upstream promoter sequences containing the androgen response elements (AREs) of the prostate specific antigen (PSA). This plasmid functions as a reporter for the transcription-modulating activity of the AR. In order to detect antagonists, the transactivation assay is conducted in the presence of constant concentration of the natural AR hormone (DHT) to induce a defined reporter signal. Addition of increasing concentrations of the suspected antagonist will decrease the reporter signal (luciferase activity).
MDA-MB-453 and 22 RV1 cells were maintained in DMEM (Cellgro, Cat. #10-014-CM) or RPMI 1640 (Gibco Cat. #11875-085) respectively and supplemented with 10% FBS (Invitrogen/GIBCO Life Science). Cells were bulk transfected in flasks with 1.3 ug/ml pGL3 PSA-Luc plasmid by using the Lipofectamine 2000 Reagent (Invitrogen, Cat. #11668-019) and serum-free Opti-MEM I media (Invitrogen, Cat #31985-070) according to the manufacturer's optimized conditions. Transfection was conducted at 37° C. with 5% CO2 for 16-18 hours. Following transfection, cells are washed, treated with trypsin, counted, and seeded in a 96-well plate at 30,000 cells per well in DMEM containing 10% Charcoal/Dextran Treated Fetal Bovine Serum (Gibco Cat. #11054-020) for MDA-MB-453 cells or RPMI 1640 (Gibco Cat. #110835) containing 10% FBS (Invitrogen/GIBCO Life Science) for 22 RV1 cells.
Following transfection, cells were incubated in the absence (blank) or presence (control) of 3 nM DHT (Sigma, Cat. #A-8380) and in the presence or absence of the standard antiandrogen bicalutamide or test compounds ranging in concentrations from 10^−10 to 10^−5M. Duplicates were used for each sample. The compound dilutions were performed by the Tecan Genesis (Tecan, Triangle Park, N.C.). After a 48 hour incubation, luciferase activity was measured using the Steady-Glo Luciferase Assay System (Promega, Cat. #E2550) according to manufacturer's specifications and luminescence was measured on a Packard TopCount (PerkinElmer). For each luciferase sample reading, the percent control (in absence of compounds) was calculated as: % Control=100×[averagesample−averageblank]/[averagecontrol−averageblank] Data was plotted and the IC50 value was defined as the concentration of compound that inhibited 50% of the luciferase activity for the controls.
Compounds described herein were tested in the AR transactivation assay described immediately above, using MDA-MB-453 cells.
For orientation: IC50 means the point on the concentration scale where inhibition reaches its midpoint. In the case of `C[C@@]12C[C@@](C)(O)[C@]3(CCO[C@H]4[C@@H]3[C@@H]1C(=O)N4c1ccc(C#N)c(C(F)(F)F)c1)O2` [Example 37, 4-((1R,2R,4R,5S,8S,12R)-2-hydroxy-2,4-dimethyl-6-oxo-9,13-dioxa-7-azatetracyclo[6.3.1.1^1,4.0^5,12]tridec-7-yl)-2-(trifluoromethyl)benzonitrile], the IC50 amounted to 1.16 µM. In the case of `CCC(=O)N[C@H]1C[C@@]2(C)O[C@@]13CCO[C@H]1[C@@H]3[C@@H]2C(=O)N1c1ccc(C#N)c(Cl)c1` [Example 214, N-((1R,2S,4R,5S,8S,12R)-7-(3-chloro-4-cyanophenyl)-4-methyl-6-oxo-9,13-dioxa-7-azatetracyclo[6.3.1.1^1,4.0^5,12]tridec-2-yl)propanamide], the IC50 turned out to be 5.65 µM.

`N#Cc1ccc(N2C(=O)[C@@H]3[C@@H]4[C@H]2OCC[C@]42O[C@H]3C[C@H]2O)cc1C(F)(F)F` (single isomer, unassigned) [Example 55]: the IC50 was determined as 10.8 µM.

Take `C[C@]12O[C@@]3(CCO[C@@]4(C)[C@@H]3[C@@H]1C(=O)N4c1ccc(C#N)c(C(F)(F)F)c1)C[C@H]2O` (single isomer, unassigned) [Example 25]: the IC50 is over 7.5 µM. For `N#Cc1ccc(N2C(=O)[C@H]3[C@H]4O[C@]5(CCO[C@@H]2[C@@H]35)C[C@@H]4O)cc1C(F)(F)F` (single isomer, unassigned) [Example 57], the IC50 is at least 7.5 µM.

Turning to `CC[C@@]12O[C@]3(CCO[C@@H]4[C@H]3[C@H]1C(=O)N4c1ccc(C#N)c(C(F)(F)F)c1)C[C@@H]2O` (single isomer, unassigned) [Example 61], the IC50 was at least 7.5 µM.

As to `CC[C@]12C[C@@H](O)[C@@]3(CCO[C@@H]4[C@H]3[C@H]1C(=O)N4c1ccc(C#N)c(C(F)(F)F)c1)O2` (single isomer, unassigned) [Example 59], the IC50 is at least 7.5 µM.

For `C[C@@]12C[C@H](N)[C@]3(CCO[C@H]4[C@@H]3[C@@H]1C(=O)N4c1ccc(C#N)c(Cl)c1)O2` [Example 45, 4-((1R,2S,4R,5S,8S,12R)-2-amino-4-methyl-6-oxo-9,13-dioxa-7-azatetracyclo[6.3.1.1^1,4.0^5,12]tridec-7-yl)-2-chlorobenzonitrile], the IC50 came out at 12.8 µM. The same measure, in the same setting: the result for `C[C@@]12C[C@@H](NS(=O)(=O)C3CC3)[C@]3(CCO[C@H]4[C@@H]3[C@@H]1C(=O)N4c1ccc(C#N)c(C(F)(F)F)c1)O2` [Example 196, N-((1R,2R,4R,5S,8S,12R)-7-(4-Cyano-3-(trifluoromethyl)phenyl)-4-methyl-6-oxo-9,13-dioxa-7-azatetracyclo[6.3.1.1^1,4.0^5,12]tridec-2-yl)cyclopropanesulfonamide] reads 0.046 µM; that for `C[C@@]12C[C@H](O)[C@]3(CCO[C@H]4[C@@H]3[C@]1(CO)C(=O)N4c1ccc(C#N)c(C(F)(F)F)c1)O2` [Example 24, 4-((1R,2S,4R,5R,8S,12R)-2-hydroxy-5-(hydroxymethyl)-4-methyl-6-oxo-9,13-dioxa-7-azatetracyclo[6.3.1.1^1,4.0^5,12]tridec-7-yl)-2-(trifluoromethyl)benzonitrile], 5.45 µM. In the case of `CC(=O)N[C@@H]1[C@@H](O)[C@]23CCO[C@@H]4[C@H]2[C@@H](C(=O)N4c2ccc(C#N)c(C(F)(F)F)c2)[C@@]1(C)O3` (stereo in doubt) [Example 254, N-((1S,2R,3R,4R,5R,8R,12S)-7-(4-cyano-3-(trifluoromethyl)phenyl)-2-hydroxy-4-methyl-6-oxo-9,13-dioxa-7-azatetracyclo[6.3.1.1^1,4.0^5,12]tridec-3-yl)acetamide], the IC50 was 4.95 µM. As to `CCS(=O)(=O)N[C@H]1C[C@@]23CCO[C@H]4[C@@H]2[C@H](C(=O)N4c2ccc(C#N)c(C(F)(F)F)c2)[C@]1(C)O3` [Example 222, N-((1R,3S,4S,5S,8S,12R)-7-(4-cyano-3-(trifluoromethyl)phenyl)-4-methyl-6-oxo-9,13-dioxa-7-azatetracyclo[6.3.1.1^1,4.0^5,12]tridec-3-yl)ethanesulfonamide], the IC50 was determined as 0.058 µM. Same read-out and setting: the result for `Cc1c(N2C(=O)[C@H]3[C@H]4[C@@H]2OCC[C@]42C[C@@H](O)[C@@]3(C)O2)ccc(C#N)c1C(F)(F)F` [Example 142, 4-((1S,3R,4S,5S,8S,12R)-3-hydroxy-4-methyl-6-oxo-9,13-dioxa-7-azatetracyclo[6.3.1.1^1,4.0^5,12]tridec-7-yl)-3-methyl-2-(trifluoromethyl)benzonitrile] reads 0.95 µM.

For `C[C@@]12O[C@]3(CCO[C@@H]4[C@H]3[C@H]1C(=O)N4c1ccc(C#N)c(C(F)(F)F)c1)C[C@H]2N=[N+]=[N-]` [Example 12, 4-((1S,3R,4R,5R,8R,12S)-3-azido-4-methyl-6-oxo-9,13-dioxa-7-azatetracyclo[6.3.1.1^1,4.0^5,12]tridec-7-yl)-2-(trifluoromethyl)benzonitrile], the half-maximal inhibitory concentration (IC50) was over 7.5 µM.

The test is the same for the next values; noted with them: MDA-MB-453 cells, antagonism in presence of 3 nM DHT, 48 hour incubation, read-out: IC50.
Turning to `C[C@]12O[C@@]3(CCO[C@H]4[C@@H]3[C@@H]1C(=O)N4c1ccc(C#N)c(F)c1)C[C@H]2O` [Example 137, 2-Fluoro-4-((1S,3R,4S,5S,8S,12R)-3-hydroxy-4-methyl-6-oxo-9,13-dioxa-7-azatetracyclo[6.3.1.1^1,4.0^5,12]tridec-7-yl)benzonitrile], the IC50 was 6.24 µM. Take `C[C@]12O[C@@]3(CCO[C@H]4[C@@H]3[C@@H]1C(=O)N4c1ccc(Cl)c(F)c1)C[C@H]2O` [Example 138, (1S,3R,4S,5S,8S,12R)-7-(4-chloro-3-fluorophenyl)-3-hydroxy-4-methyl-9,13-dioxa-7-azatetracyclo[6.3.1.1^1,4.0^5,12]tridecan-6-one]: the IC50 is 6.05 µM. The same measure, in the same setting: in the case of `C[C@]12C[C@@H](O)[C@@]3(CCO[C@@H]4[C@H]3[C@H]1C(=O)N4c1ccc(C#N)c(Br)c1)O2` [Example 240, 2-Bromo-4-((1S,2R,4S,5R,8R,12S)-2-hydroxy-4-methyl-6-oxo-9,13-dioxa-7-azatetracyclo[6.3.1.1^1,4.0^5,12]tridec-7-yl)benzonitrile] it was 6.38 µM. As for `C#Cc1cc(N2C(=O)[C@H]3[C@H]4[C@@H]2OCC[C@]42C[C@@H](O)[C@@]3(C)O2)ccc1Cl` [Example 145, (1S,3R,4S,5S,8S,12R)-7-(4-chloro-3-ethynylphenyl)-3-hydroxy-4-methyl-9,13-dioxa-7-azatetracyclo[6.3.1.1^1,4.0^5,12]tridecan-6-one], the half-inhibitory concentration (IC50) was found to be 1.72 µM.

Regarding `C[C@@]12C[C@H](O)[C@]3(CCO[C@H]4[C@@H]3[C@@H]1C(=O)N4c1cc(Cl)cc(Cl)c1)O2` [Example 117, (1R,2S,4R,5S,8S,12R)-7-(3,5-dichlorophenyl)-2-hydroxy-4-methyl-9,13-dioxa-7-azatetracyclo[6.3.1.1^1,4.0^5,12]tridecan-6-one], the IC50 came out at 2.48 µM.
